Patent US9443060B2, “Method and system to provide personalized pharmaceutical compositions and dosages” (Volant Holdings GMBH, priority 2009, dated 2016)

What was measured:
[1] = tested on: peripheral glucose uptake (PGU); experiment: Glucose supply and insulin demand model: effect on peripheral glucose uptake; assay type: in vivo, human; details: for PGU: adjustment factor = increase in peripheral glucose uptake at the therapeutic dose of Table 1, T2D; for Score PGU: Metformin 2000 mg, Glyburide 10 mg, Pioglitazone 45 mg, Insulin Glargine 0.5 U/kg daily, pH encapsulated glucose 3.0 grams/day
Procedure: (§1) Therapeutic targets of the glucose supply (CE, 1+2; HGU, 3; GNG, 4; IR, 5) and insulin demand (PGU, 6; PIE, 7) model are presented in FIG. 1. To identify quantitative differences between antidiabetic agents on CE, HGU, GNG, IR, PGU, and PIE, multidatabase searches (Cochrane Central Register of Controlled Trials and Cochrane Register of Systematic Reviews, Embase, OVID Healthstar, OVID Journals, and PubMed) were conducted cross-referencing title and keywords for all selected antidiabetic therapies and their respective targets.
(§2) Alpha-glucosidase, biguanide, and thiazolidinedione (TZD) studies with long-term, pre-post design at maximal therapeutic doses were identified to simulate chronic administration. To maintain consistency with cardiovascular trials and accommodate known influences of hyperglycemia and hyperinsulinemia on the respective targets,^13-16 studies including patients with HbA1c in the range of 6-8% and body mass index (BMI)≧30 kg/m^2 were preferentially selected. In the event multiple studies were available to identify the effect of an agent on a therapeutic target, the mean percent change was used. Conversely, if there was evidence that an agent would elicit a response on a given target but no mathematical representation of the difference was provided, conservative estimates consistent with the scale of other agents and the degree of glucose regulation were instituted to best represent the expected effect. Individual agents were then characterized for the 24 h percent change from baseline for CE, HGU, GNG, IR, PGU, and PIE. Carbohydrate exposure was determined as the combined effect of caloric intake and intestinal carbohydrate absorption. Hepatic glucose uptake was defined as the reported value obtained immediately following oral glucose loading. Because GNG is known to be enhanced in the fasting state and persistent throughout the prandial phase,^17,18 effect was determined during the fasting state and considered equivalent throughout the prandial phase. For studies evaluating fasting glucose and insulin concentrations, an index of IR was determined by homeostasis model assessment of insulin resistance (HOM-AIR) using the following formula: Insulin (mU/liter)×Glucose (mmol)/22.5.^19 To account for known differences in secretory and uptake dynamics during the fasting and prandial phases, studies identifying the impact of therapies during the fasting state (or simulated hyperinsulinemic euglycemic clamp) and prandial phase (or oral glucose load insulin clamp) were specifically identified for changes in PGU (glucose infusion rate) and PIE (insulin concentrations) according to Equation (1): […]
(§3) For sulfonylurea and insulin-based therapies, insulin concentration time profiles were obtained and superimposed on the baseline 24 h insulin concentration time profile of T2D patients (FIG. 2) to calculate the increase in PIE (trapezoidal rule).^20 Calculated increases in incremental and cumulative insulin exposure were correlated to known insulin dose-response effects on HGU, GNG, and PGU (FIG. 3),^18,21 according to the equation y=mx+b. Twenty-four-hour increases in HGU, PGU, and PIE and decreases in GNG were compared to baseline values and percent change calculated.
(§4) With alpha-glucosidase, biguanide, TZD, secretagogue, and insulin therapies characterized for their respective impacts on CE, HGU, GNG, IR, PIE, and PGU, identification of their effect on the glucose supply (decrease in CE, increase in HGU, decrease in GNG, decrease in IR) and insulin demand (increase in PIE, increase in PGU) dynamic was assessed according to Equation (2), which provides the SD ratio according to the invention: […]

[2] = tested on: peripheral insulin exposure (PIE); experiment: Glucose supply and insulin demand model: effect on peripheral insulin exposure; assay type: in vivo, human; details: for PIE: adjustment factor = increase in peripheral insulin exposure at the therapeutic dose of Table 1, T2D; for Score PIE: Metformin 2000 mg, Glyburide 10 mg, Pioglitazone 45 mg, Insulin Glargine 0.5 U/kg daily, pH encapsulated glucose 3.0 grams/day
Procedure: as §1, §2, §3, §4
Twenty-four-hour steady state insulin concentration time curves were superimposed on the baseline secretion profile of the standard T2D patient.

[3] = tested on: hepatic glucose uptake (HGU); experiment: Glucose supply and insulin demand model: effect on hepatic glucose uptake; assay type: in vivo, human; details: for HGU uptake: adjustment factor = increase in hepatic glucose uptake at the therapeutic dose of Table 1, T2D; for Score HGU: Metformin 2000 mg, Glyburide 10 mg, Pioglitazone 45 mg, Insulin Glargine 0.5 U/kg daily, pH encapsulated glucose 3.0 grams/day
Procedure: as §1, §2, §3, §4

insulin resistance (IR) = experiment: Glucose supply and insulin demand model: effect on insulin resistance; assay type: in vivo, human; details: for IR reduction: adjustment factor = decrease in insulin resistance at the therapeutic dose of Table 1, T2D; for Score IR: Metformin 2000 mg, Glyburide 10 mg, Pioglitazone 45 mg, Insulin Glargine 0.5 U/kg daily, pH encapsulated glucose 3.0 grams/day
Procedure: as §1, §2, §3, §4

[4] = tested on: hepatic gluconeogenesis (GNG); experiment: Glucose supply and insulin demand model: effect on hepatic gluconeogenesis; assay type: in vivo, human; details: for GNG inhibition: adjustment factor = decrease in hepatic gluconeogenesis at the therapeutic dose of Table 1, T2D; for Score HGI: Metformin 2000 mg, Glyburide 10 mg, Pioglitazone 45 mg, Insulin Glargine 0.5 U/kg daily, pH encapsulated glucose 3.0 grams/day
Procedure: as §1, §2, §3, §4

[5] = tested on: carbohydrate exposure (CE); experiment: Glucose supply and insulin demand model: effect on carbohydrate exposure; assay type: in vivo, human; parameters: scale not given here; details: Metformin 2000 mg, Glyburide 10 mg, Pioglitazone 45 mg, Insulin Glargine 0.5 U/kg daily; pH encapsulated glucose 3.0 grams/day
Procedure: as §1, §2, §3, §4

[6] = tested on: hepatic gluconeogenesis (GNG); details: cited from earlier work

C[C@H]1O[C@H](O[C@H]2[C@H](O)[C@@H](O)[C@@H](O[C@H]3[C@H](O)[C@@H](O)C(O)O[C@@H]3CO)O[C@@H]2CO)[C@H](O)[C@@H](O)[C@@H]1N[C@H]1C=C(CO)[C@@H](O)[C@H](O)[C@H]1O (stereo partly shown) [Acarbose]
PGU [1]: 0.25
PIE [2]: 0.05
HGU uptake [3]: 0.15
IR reduction (insulin resistance (IR)): 0.15
GNG inhibition [4]: 0.05

CC(=O)c1ccc(S(=O)(=O)NC(=O)NC2CCCCC2)cc1 [Acetohexamide]
PGU [1]: 0.36
PIE [2]: 0.21
HGU uptake [3]: 0.14
IR reduction (insulin resistance (IR)): 0.00
GNG inhibition [4]: 0.07

CCCNC(=O)NS(=O)(=O)c1ccc(Cl)cc1 [Chlorpropamide]
PGU [1]: 0.36
PIE [2]: 0.21
HGU uptake [3]: 0.14
IR reduction (insulin resistance (IR)): 0.00
GNG inhibition [4]: 0.07

CCC1=C(C)CN(C(=O)NCCc2ccc(S(=O)(=O)NC(=O)N[C@H]3CC[C@H](C)CC3)cc2)C1=O [Glimepiride]
PGU [1]: 0.39
PIE [2]: 0.24
HGU uptake [3]: 0.18
IR reduction (insulin resistance (IR)): 0.00
GNG inhibition [4]: 0.08

Cc1cnc(C(=O)NCCc2ccc(S(=O)(=O)NC(=O)NC3CCCCC3)cc2)cn1 [Glipizide]
IR reduction (insulin resistance (IR)): 0.00
GNG inhibition [4]: 0.08

COc1ccc(Cl)cc1C(=O)NCCc1ccc(S(=O)(=O)NC(=O)NC2CCCCC2)cc1 [Glyburide]
Score PGU [1]: 0.36
PGU [1]: 0.36
Score PIE [2]: 0.21
PIE [2]: 0.21
Score HGU [3]: 0.14
HGU uptake [3]: 0.14
Score IR (insulin resistance (IR)): 0.00
IR reduction (insulin resistance (IR)): 0.00
Score CE [5]: 0.00
Score HGI [4]: 0.07
GNG inhibition [4]: 0.07

OCCN1C[C@H](O)[C@@H](O)[C@H](O)[C@H]1CO [Miglitol]
PGU [1]: 0.25
PIE [2]: 0.05
HGU uptake [3]: 0.15
IR reduction (insulin resistance (IR)): 0.15
hepatic glucose output ([6]; Schnack, miglitol 300 mg/day, eight weeks, euglycemic clamp, poorly controlled T2D, placebo 0.35±0.17, not significant): 0.37±0.15 mg/kg^−1/min^−1
change in hepatic glucose production ([6]; Sels, miglitol 200 mg at bedtime for 1 week, T2D): not associated with a change in hepatic glucose production
GNG inhibition [4]: 0.05

CC(C)[C@H]1CC[C@H](C(=O)N[C@H](Cc2ccccc2)C(=O)O)CC1 [Nateglinide]
PGU [1]: 0.60
PIE [2]: 0.34
HGU uptake [3]: 0.21
IR reduction (insulin resistance (IR)): 0.00
GNG inhibition [4]: 0.11

CCc1ccc(CCOc2ccc(CC3SC(=O)NC3=O)cc2)nc1 (stereo not shown) [Pioglitazone]
Score PGU [1]: 0.59
PGU [1]: 0.59
Score PIE [2]: −0.10
PIE [2]: −0.10
Score HGU [3]: 0.40
HGU uptake [3]: 0.40
Score IR (insulin resistance (IR)): 0.35
IR reduction (insulin resistance (IR)): 0.35
Score CE [5]: 0.00
Score HGI [4]: 0.21
GNG inhibition [4]: 0.21

CCOc1cc(CC(=O)N[C@@H](CC(C)C)c2ccccc2N2CCCCC2)ccc1C(=O)O [Repaglinide]
PGU [1]: 0.31
PIE [2]: 0.20
HGU uptake [3]: 0.16
IR reduction (insulin resistance (IR)): 0.00
GNG inhibition [4]: 0.07

CN(CCOc1ccc(CC2SC(=O)NC2=O)cc1)c1ccccn1 (stereo not shown) [Rosiglitazone]
PIE [2]: −0.10
IR reduction (insulin resistance (IR)): 0.39
GNG inhibition [4]: 0.23
